Reference: PubChem BioAssay AID1963856 (Molecular Pharmacology Branch, DTP, NCI, 2024)

Tested on: LG0567-F671-PDC KRAS tumor spheroid viability
Test: Anticancer human tumor LG0567-F671-PDC patient-derived lung adenocarcinoma cell line growth inhibition [KRAS2]
Details: spheroids with HUVEC and MSC; for viability, T/C: stronger effect = lower value; for IC50: curve of first compound
How it was run: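 KRAS-mutant tumor cells were grown as spheroids with HUVEC endothelial cells and human MSCs as stroma. Targeted agents were tested alone and with KRAS pathway inhibitors. Doses started at or near clinical Cmax, or 10 microM, descending half-log.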

[1] = second compound 0.1 µM, first compound 0.0316 µM
[2] = second compound 0.1 µM, first compound 0.1 µM
[3] = second compound 0.1 µM, first compound 0.316 µM
[4] = second compound 0.1 µM, first compound 1 µM
[5] = second compound 0.1 µM, first compound 3.16 µM
[6] = second compound 0.1 µM, first compound 10 µM
[7] = second compound 0.316 µM, first compound 0.0316 µM
[8] = second compound 0.316 µM, first compound 0.1 µM
[9] = second compound 0.316 µM, first compound 0.316 µM
[10] = second compound 0.316 µM, first compound 1 µM
[11] = second compound 0.316 µM, first compound 3.16 µM
[12] = second compound 0.316 µM, first compound 10 µM
[13] = second compound 1 µM, first compound 0.0316 µM
[14] = second compound 1 µM, first compound 0.1 µM
[15] = second compound 1 µM, first compound 0.316 µM
[16] = second compound 1 µM, first compound 1 µM
[17] = second compound 1 µM, first compound 3.16 µM
[18] = second compound 1 µM, first compound 10 µM
[19] = second compound 3.16 µM, first compound 0.0316 µM
[20] = second compound 3.16 µM, first compound 0.1 µM
[21] = second compound 3.16 µM, first compound 0.316 µM
[22] = second compound 3.16 µM, first compound 1 µM
[23] = second compound 3.16 µM, first compound 3.16 µM
[24] = second compound 3.16 µM, first compound 10 µM
[25] = second compound 10 µM, first compound 0.0316 µM
[26] = second compound 10 µM, first compound 0.1 µM
[27] = second compound 10 µM, first compound 0.316 µM
[28] = second compound 10 µM, first compound 1 µM
[29] = second compound 10 µM, first compound 3.16 µM
[30] = second compound 10 µM, first compound 10 µM
[31] = second compound 0.0316 µM, first compound 0.0316 µM
[32] = second compound 0.0316 µM, first compound 0.1 µM
[33] = second compound 0.0316 µM, first compound 0.316 µM
[34] = second compound 0.0316 µM, first compound 1 µM
[35] = second compound 0.0316 µM, first compound 3.16 µM
[36] = second compound 0.0316 µM, first compound 10 µM
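Further: drug exposure lasted seven days after spheroids formed for three days.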
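Wherever viability, T/C is given: 100% = DMSO vehicle control viability.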

Row | Structure (SMILES) | IC50 (second compound 0.1 µM) | IC50 (second compound 0.316 µM) | IC50 (second compound 1 µM) | IC50 (second compound 3.16 µM) | viability, T/C [1] | viability, T/C [2] | viability, T/C [3] | viability, T/C [4] | viability, T/C [5] | viability, T/C [6] | viability, T/C [7] | viability, T/C [8] | viability, T/C [9] | viability, T/C [10] | viability, T/C [11] | viability, T/C [12] | viability, T/C [13] | viability, T/C [14] | viability, T/C [15] | viability, T/C [16] | other results
1 | CC1COCCN1c1cc(-c2ccnn2C)c2ccnc(-c3ccn[nH]3)c2n1 (configuration not stated) |  |  |  |  |  |  |  |  |  |  |  |  |  |  |  |  |  |  |  |  | viability, T/C (compound 0.01 µM): 101% [middle of 5 runs]; viability, T/C (compound 0.316 µM): 74% [middle of 5 runs]
2 | CC1OCC2(CCN(c3cnc(Sc4ccnc(N)c4Cl)c(N)n3)CC2)C1N (configuration not stated) + COc1cc2nc(C)nc(NC(C)c3cc(N)cc(C(F)(F)F)c3)c2cc1OC1CCOC1 | 62.2 nM | 55.5 nM | 68.1 nM | 57.7 nM | 61.9% | 40.3% | 30.6% | 27.5% | 23.1% | 15.3% | 58% | 41.6% | 30.6% | 25.8% | 21.7% | 16% | 61.5% | 43.6% | 32% | 26.3% | IC50 (second compound 10 µM): 56.2 nM; viability, T/C [17]: 19.2%; viability, T/C [18]: 13.5%; viability, T/C [19]: 58.1%; viability, T/C [20]: 42.3%; viability, T/C [21]: 32%; viability, T/C [22]: 25.4%; viability, T/C [23]: 19.2%; viability, T/C [24]: 13.6%; viability, T/C [25]: 52.7%; viability, T/C [26]: 47.4%; viability, T/C [27]: 28.9%; viability, T/C [28]: 20.2%; viability, T/C [29]: 19.5%; viability, T/C [30]: 16%
3 | Cn1nccc1Nc1nccc(-c2cc3c(s2)C(C)(C)N(CCN2CCOCC2)C3=O)n1 + C=CC(=O)N1CCN(c2nc(=O)n(-c3c(C)ccnc3C(C)C)c3nc(-c4c(O)cccc4F)c(F)cc23)C(C)C1 | < 31.6 nM | < 31.6 nM | < 31.6 nM | < 31.6 nM | 21.2% | 23.1% | 19.2% | 20.8% | 14.1% | 16.3% | 22.2% | 19.8% | 19.9% | 17.8% | 15.6% | 17.2% | 23.1% | 21.8% | 21% | 20.9% | IC50 (second compound 10 µM): < 31.6 nM; viability, T/C [17]: 15%; viability, T/C [18]: 20.8%; viability, T/C [19]: 22.2%; viability, T/C [20]: 18.1%; viability, T/C [21]: 20.3%; viability, T/C [22]: 12.2%; viability, T/C [23]: 14%; viability, T/C [24]: 20.9%; viability, T/C [25]: 20.5%; viability, T/C [26]: 19.2%; viability, T/C [27]: 14.5%; viability, T/C [28]: 12.2%; viability, T/C [29]: 15.2%; viability, T/C [30]: 26.8%
4 | COc1cc(Nc2ncc3c(n2)-c2ccc(Cl)cc2C(c2c(F)cccc2OC)=NC3)ccc1C(=O)O + C=CC(=O)N1CCN(c2nc(OCC3CCCN3C)nc3c2CCN(c2cccc4cccc(C)c24)C3)CC1CC#N | < 31.6 nM | < 31.6 nM | < 31.6 nM | < 31.6 nM | 25.7% | 22.9% | 17.6% | 19.2% | 21.8% | 15% | 29.2% | 22.6% | 20.3% | 19.7% | 23.3% | 16.9% | 27.8% | 26.4% | 24.6% | 25.4% | IC50 (second compound 0.0316 µM): < 31.6 nM; viability, T/C [31]: 32.8%; viability, T/C [32]: 20.1%; viability, T/C [33]: 20.5%; viability, T/C [34]: 20.2%; viability, T/C [35]: 18.7%; viability, T/C [36]: 16.3%; viability, T/C [17]: 26.7%; viability, T/C [18]: 22.9%; viability, T/C [19]: 28.7%; viability, T/C [20]: 30.4%; viability, T/C [21]: 30.3%; viability, T/C [22]: 23.7%; viability, T/C [23]: 17%; viability, T/C [24]: 1.09%
5 | Cn1nccc1Nc1nccc(-c2cc3c(s2)C(C)(C)N(CCN2CCOCC2)C3=O)n1 + CC1OCC2(CCN(c3cnc(Sc4ccnc(N)c4Cl)c(N)n3)CC2)C1N | 180 nM | < 31.6 nM | < 31.6 nM | < 31.6 nM | 60.6% | 52% | 46.3% | 38.9% | 24.1% | 23.4% | 36.8% | 35.9% | 29.7% | 24.3% | 21.5% | 18.2% | 32.6% | 29.5% | 21% | 18.3% | IC50 (second compound 10 µM): < 31.6 nM; viability, T/C [17]: 16.4%; viability, T/C [18]: 12.4%; viability, T/C [19]: 18.6%; viability, T/C [20]: 19.6%; viability, T/C [21]: 17.9%; viability, T/C [22]: 9.57%; viability, T/C [23]: 7.17%; viability, T/C [24]: 10.8%; viability, T/C [25]: 10.2%; viability, T/C [26]: 10.7%; viability, T/C [27]: 10.5%; viability, T/C [28]: 4.14%; viability, T/C [29]: 3.55%; viability, T/C [30]: 5.13%
6 | O=C(c1cc(Cc2n[nH]c(=O)c3ccccc23)ccc1F)N1CCN(C(=O)C2CC2)CC1 + C=CC(=O)N1CCN(c2nc(OCC3CCCN3C)nc3c2CCN(c2cccc4cccc(C)c24)C3)CC1CC#N | < 31.6 nM | < 31.6 nM | < 31.6 nM | < 31.6 nM | 21.3% | 22.5% | 23.6% | 24.1% | 27.9% | 34.4% | 25.6% | 26% | 24.1% | 24.4% | 23.6% | 29.6% | 27.9% | 28.3% | 26% | 25.6% | IC50 (second compound 0.0316 µM): < 31.6 nM; viability, T/C [31]: 33.1%; viability, T/C [32]: 28.8%; viability, T/C [33]: 89.6%; viability, T/C [34]: 26%; viability, T/C [35]: 30%; viability, T/C [36]: 30.3%; viability, T/C [17]: 25.8%; viability, T/C [18]: 30.9%; viability, T/C [19]: 30.1%; viability, T/C [20]: 29.2%; viability, T/C [21]: 33.1%; viability, T/C [22]: 30.4%; viability, T/C [23]: 35.4%; viability, T/C [24]: 24.3%
